These results are taken from US20040082550A1, “Tropolone derivative” (priority 2000, published 2004).

The experiment has as its system promyelocyte leukemia cell strain HL-60. Briefly: Test for induction of cell differentiation in HL-60 cells (NBT reduction ability). The class given is cell-based. The settings on record: for Ratio of cells for which differentiation was induced by each compound alone (%): calculated from NBT reduction ability; for Ratio of cells for which differentiation was induced by each compound in combination with 1 × 10^−7 M of HX630 (%): in combination with 1×10^−7 M HX630 (retinoid synergist). The protocol:
For each of the compounds of the examples, action for inducing cell differentiation was examined for each alone and in combination with 1×10^−7 M of HX630. According to the methods described in Japanese Patent Unexamined Publication (KOKAI) No. (Sho)61-76440/1986, differentiation of the cells of promyelocyte leukemia cell strain HL-60 into granulocytic series cells was determined based on morphological change and measurement of ability to reduce nitro blue tetrazolium (NBT). The ratios (%) of differentiated cells shown in the following table are those calculated from NBT reduction ability. HX630 is a retinoid synergist that enhances actions of retinoids, and the concentrations of −8, −7 and −6 mean that each compound was added at concentrations of 1×10^−8 M, 1×10^−7 M and 1×10^−6 M, respectively.

[1] abbreviates: compound concentration -6 (1×10^−6 M).
[2] abbreviates: compound concentration -7 (1×10^−7 M).
Where [3] appears, read: compound concentration -8 (1×10^−8 M).

As for `CN(C(=O)c1ccc2c(c1)C(C)(C)CCC2(C)C)c1ccc(O)c(=O)cc1` [Tp82], the “Ratio of cells for which differentiation was induced by each compound alone (%)” value reads like this: (concentration -6 (1×10^−6 M)) 1.4%; (concentration -7 (1×10^−7 M)) 1.2%; (concentration -8 (1×10^−8 M)) 0.5%. Further, the “Ratio of cells for which differentiation was induced by each compound in combination with 1 × 10^−7 M of HX630 (%)” value reads like this: under setting [1], 42%; under setting [2], 7%; under setting [3], 1.9%.

In the case of `CC(C)(C)c1cc(N=Nc2ccc(O)c(=O)cc2)cc(C(C)(C)C)c1` [Tp170], the “Ratio of cells for which differentiation was induced by each compound alone (%)” value is 2.3% (concentration -6 (1×10^−6 M)), 0.8% (concentration -7 (1×10^−7 M)) and 1.1% (concentration -8 (1×10^−8 M)). Moreover, the “Ratio of cells for which differentiation was induced by each compound in combination with 1 × 10^−7 M of HX630 (%)” value under setting [1] stood at 10%, the “Ratio of cells for which differentiation was induced by each compound in combination with 1 × 10^−7 M of HX630 (%)” value under setting [2] stood at 2.3% and the “Ratio of cells for which differentiation was induced by each compound in combination with 1 × 10^−7 M of HX630 (%)” value under setting [3] is given as 0.5%.

Consider `CC1(C)CCC(C)(C)c2cc(C=CC=CC(=O)Nc3ccc(O)c(=O)cc3)ccc21` [Tp95], for which the “Ratio of cells for which differentiation was induced by each compound alone (%)” value (concentration -6 (1×10^−6 M)) is recorded as 0.3%, the “Ratio of cells for which differentiation was induced by each compound alone (%)” value (concentration -7 (1×10^−7 M)) is on record as 0.5% and the “Ratio of cells for which differentiation was induced by each compound alone (%)” value (concentration -8 (1×10^−8 M)) is given as 0.5%. Further, the “Ratio of cells for which differentiation was induced by each compound in combination with 1 × 10^−7 M of HX630 (%)” value under setting [1] is reported as 1.7%, the “Ratio of cells for which differentiation was induced by each compound in combination with 1 × 10^−7 M of HX630 (%)” value under setting [2] stood at 0.5% and the “Ratio of cells for which differentiation was induced by each compound in combination with 1 × 10^−7 M of HX630 (%)” value under setting [3] was determined as 0.8%.

As for `COc1ccc(C#Cc2ccc3c(c2)C(C)(C)CCC3(C)C)ccc1=O` [Tp141], the “Ratio of cells for which differentiation was induced by each compound alone (%)” value is reported as 6.4% (concentration -6 (1×10^−6 M)), 3.3% (concentration -7 (1×10^−7 M)) and 2.2% (concentration -8 (1×10^−8 M)). Moreover, the “Ratio of cells for which differentiation was induced by each compound in combination with 1 × 10^−7 M of HX630 (%)” value is, setting by setting: under setting [1], 84%; under setting [2], 7%; under setting [3], 4.1%.

For the compound `Cc1cc2c(cc1N(C)c1ccc(O)c(=O)cc1)C(C)(C)CCC2(C)C` [Tp22], the “Ratio of cells for which differentiation was induced by each compound alone (%)” value (concentration -6 (1×10^−6 M)) is 18%, the “Ratio of cells for which differentiation was induced by each compound alone (%)” value (concentration -7 (1×10^−7 M)) is reported as 2.4% and the “Ratio of cells for which differentiation was induced by each compound alone (%)” value (concentration -8 (1×10^−8 M)) is reported as 2.8%. Besides, the “Ratio of cells for which differentiation was induced by each compound in combination with 1 × 10^−7 M of HX630 (%)” value by setting is: under setting [1], 78%; under setting [2], 3.3%; under setting [3], 2.1%.

For the compound `CC1(C)CCC(C)(C)c2cc(N=Nc3ccc(O)c(=O)cc3)ccc21` [Tp160], the “Ratio of cells for which differentiation was induced by each compound alone (%)” value runs as follows: (concentration -6 (1×10^−6 M)) 32%; (concentration -7 (1×10^−7 M)) 34.4%; (concentration -8 (1×10^−8 M)) 18.5%. Further, the “Ratio of cells for which differentiation was induced by each compound in combination with 1 × 10^−7 M of HX630 (%)” value is, setting by setting: under setting [1], 90%; under setting [2], 84%; under setting [3], 81%.

As to `CC(C)(C)c1cc(C(=O)Nc2ccc(O)c(=O)cc2)cc(C(C)(C)C)c1` [Tp50], the “Ratio of cells for which differentiation was induced by each compound alone (%)” value reads like this: (concentration -6 (1×10^−6 M)) 5.1%; (concentration -7 (1×10^−7 M)) 2.8%; (concentration -8 (1×10^−8 M)) 1.6%.

For `Cc1cc2c(cc1C(=O)Nc1ccc(O)c(=O)cc1)C(C)(C)CCC2(C)C` [Tp84], the “Ratio of cells for which differentiation was induced by each compound alone (%)” value is recorded as 26% (concentration -6 (1×10^−6 M)), 5% (concentration -7 (1×10^−7 M)) and 0.7% (concentration -8 (1×10^−8 M)). For the same compound, the “Ratio of cells for which differentiation was induced by each compound in combination with 1 × 10^−7 M of HX630 (%)” value reads like this: under setting [1], 90%; under setting [2], 89%; under setting [3], 15%.

For the compound `CC1(C)CCC(C)(C)c2cc(S(=O)(=O)Nc3ccc(O)c(=O)cc3)ccc21` [Tp40], the “Ratio of cells for which differentiation was induced by each compound alone (%)” value reads like this: (concentration -6 (1×10^−6 M)) 2.3%; (concentration -7 (1×10^−7 M)) 0.9%; (concentration -8 (1×10^−8 M)) 1.3%. The “Ratio of cells for which differentiation was induced by each compound in combination with 1 × 10^−7 M of HX630 (%)” value is, setting by setting: under setting [1], 2%; under setting [2], 2.5%; under setting [3], 1.8%.

On to `CC1(C)CCC(C)(C)c2cc(-c3ccc(-c4ccc(O)c(=O)cc4)s3)ccc21` [Tp210], for which the “Ratio of cells for which differentiation was induced by each compound alone (%)” value (concentration -6 (1×10^−6 M)) was 11%, the “Ratio of cells for which differentiation was induced by each compound alone (%)” value (concentration -7 (1×10^−7 M)) was 6% and the “Ratio of cells for which differentiation was induced by each compound alone (%)” value (concentration -8 (1×10^−8 M)) was 0.8%. Moreover, the “Ratio of cells for which differentiation was induced by each compound in combination with 1 × 10^−7 M of HX630 (%)” value by setting is: under setting [1], 91%; under setting [2], 91%; under setting [3], 64%.

As for `CC1(C)CCC(C)(C)c2cc(C#Cc3cccc(=O)cc3)ccc21` [Tp149], the “Ratio of cells for which differentiation was induced by each compound alone (%)” value reads like this: (concentration -6 (1×10^−6 M)) 40%; (concentration -7 (1×10^−7 M)) 4%; (concentration -8 (1×10^−8 M)) 1.4%. Besides, the “Ratio of cells for which differentiation was induced by each compound in combination with 1 × 10^−7 M of HX630 (%)” value by setting is: under setting [1], 40%; under setting [2], 85%; under setting [3], 3.5%.

In the case of `CC1(C)CCC(C)(C)c2cc(C#Cc3ccc(NN)c(=O)cc3)ccc21` [Tp146], the “Ratio of cells for which differentiation was induced by each compound alone (%)” value was 69% (concentration -6 (1×10^−6 M)), 2.2% (concentration -7 (1×10^−7 M)) and 3.6% (concentration -8 (1×10^−8 M)). The “Ratio of cells for which differentiation was induced by each compound in combination with 1 × 10^−7 M of HX630 (%)” value reads like this: under setting [1], 83%; under setting [2], 91%; under setting [3], 66%.

For `CC1(C)CCC(C)(C)c2cc(-c3cccc(-c4ccc(O)c(=O)cc4)c3)ccc21` [Tp190], the “Ratio of cells for which differentiation was induced by each compound alone (%)” value is given as 0% (concentration -6 (1×10^−6 M)), 32% (concentration -7 (1×10^−7 M)) and 1.6% (concentration -8 (1×10^−8 M)). Further, the “Ratio of cells for which differentiation was induced by each compound in combination with 1 × 10^−7 M of HX630 (%)” value runs as follows: under setting [1], 50%; under setting [2], 90%; under setting [3], 77%.
